The source made the active and inactive calls. The rule behind the calls is not given here.

The test system of the data set is CCRIS mutagenicity, Ames/micronucleus/aberration tests. Put plainly: CCRIS mutagenicity studies.
Where [1] appears, read: Test System: AMES SALMONELLA TYPHIMURIUM, Strain/Indicator: TA97, Metabolic Activation: NONE, Method: PREINCUBATION
[2] abbreviates: Test System: AMES SALMONELLA TYPHIMURIUM, Strain/Indicator: TA100, Metabolic Activation: NONE, Method: STANDARD PLATE.
Setting [3] is: Test System: Ames Salmonella typhimurium, Strain/Indicator: TA102, Metabolic Activation: None, Method: Preincubation.
[4] abbreviates: Test System: AMES SALMONELLA TYPHIMURIUM, Strain/Indicator: TA1535, Metabolic Activation: NONE, Method: PREINCUBATION

As for `CC1=C(/C=C/C(C)=C/C=C/C(C)=C/C=C/C=C(C)/C=C/C=C(C)/C=C/C2=C(C)CCCC2(C)C)C(C)(C)CCC1`, the mutagenic call is, setting by setting: (End Point: IN VITRO CHROMOSOMAL ABERRATIONS, Test System: F344 FEMALE RAT HEPATOCYTE, Metabolic Activation: NONE) “active; positive”; (End Point: IN VITRO MICRONUCLEUS, Test System: F344 FEMALE RAT HEPATOCYTES, Metabolic Activation: NONE) “active; positive”; under setting [1], “inactive; negative”; (Test System: AMES SALMONELLA TYPHIMURIUM, Strain/Indicator: TA97, Metabolic Activation: S-9, Method: PREINCUBATION) “inactive; negative”; (Test System: AMES SALMONELLA TYPHIMURIUM, Strain/Indicator: TA98, Metabolic Activation: NONE, Method: STANDARD PLATE) “inactive; negative”; (Test System: AMES SALMONELLA TYPHIMURIUM, Strain/Indicator: TA98, Metabolic Activation: RAT, LIVER, S-9, AROCLOR 1254, Method: STANDARD PLATE) “inactive; negative”. The mutagenic call under setting [2] is “inactive; negative”; the mutagenic call (Test System: AMES SALMONELLA TYPHIMURIUM, Strain/Indicator: TA100, Metabolic Activation: RAT, LIVER, S-9, AROCLOR 1254, Method: STANDARD PLATE) is “inactive; negative”; the mutagenic call (Test System: AMES SALMONELLA TYPHIMURIUM, Strain/Indicator: TA102, Metabolic Activation: NONE, Method: PREINCUBATION) is “inactive; negative”; the mutagenic call (Test System: AMES SALMONELLA TYPHIMURIUM, Strain/Indicator: TA102, Metabolic Activation: S-9, Method: PREINCUBATION) is “inactive; negative”.
As for `CCN(CC)CCCNC(=O)N/N=C/c1ccc([N+](=O)[O-])o1`, the mutagenic call (Test System: E. COLI, Strain/Indicator: WP2 UVRA, Metabolic Activation: NONE, Method: SPOT) was “active; positive”.
Turning to `c1ccc2c(c1)ccc1c3ccccc3sc21`, the mutagenic call (Test System: AMES SALMONELLA TYPHIMURIUM, Strain/Indicator: TA100, Metabolic Activation: RAT, LIVER, S-9, AROCLOR 1254, Method: PREINCUBATION) is “active; positive”.
As for `O=C(O[C@@H]1Cc2c(O)cc(O)cc2O[C@H]1c1ccc(O)c(O)c1)c1cc(O)c(O)c(O)c1`, the mutagenic call under setting [3] is “inactive; negative” and the mutagenic call (Test System: Ames Salmonella typhimurium, Strain/Indicator: TA102, Metabolic Activation: Rat, Liver, S-9, Aroclor 1254 in 0.154 M KCl, Method: Preincubation) is “inactive; negative”.
Consider `CN(CCCl)c1ccc(/C=C/C2=[N+](C)c3ccccc3C2(C)C)cc1`, for which the mutagenic call is “inactive; negative” (Test System: Ames Salmonella typhimurium, Strain/Indicator: TA98, Metabolic Activation: None, Method: Preincubation); “inactive; negative” (Test System: Ames Salmonella typhimurium, Strain/Indicator: TA98, Metabolic Activation: Rat, Liver, S-9, Aroclor 1254, Method: Preincubation); “inactive; negative” (Test System: Ames Salmonella typhimurium, Strain/Indicator: TA100, Metabolic Activation: None, Method: Preincubation); “inactive; negative” (Test System: Ames Salmonella typhimurium, Strain/Indicator: TA100, Metabolic Activation: Rat, Liver, S-9, Aroclor 1254, Method: Preincubation); “inactive; negative” under setting [3]; “inactive; negative” (Test System: Ames Salmonella typhimurium, Strain/Indicator: TA102, Metabolic Activation: Rat, Liver, S-9, Aroclor 1254, Method: Preincubation). Moreover, the mutagenic call was “inactive; negative” (Test System: Ames Salmonella typhimurium, Strain/Indicator: TA1535, Metabolic Activation: None, Method: Preincubation) and “inactive; negative” (Test System: Ames Salmonella typhimurium, Strain/Indicator: TA1535, Metabolic Activation: Rat, Liver, S-9, Aroclor 1254, Method: Preincubation).
With `CC(=O)CN(COC(C)=O)N=O`, the mutagenic call under setting [4] was “active; positive”.
Regarding `COC(C)=O`, the mutagenic call (Test System: AMES SALMONELLA TYPHIMURIUM, Strain/Indicator: TA97, Metabolic Activation: HAMSTER, LIVER, S-9, AROCLOR 1254 (10 OR 30%), Method: PREINCUBATION) is “inactive; negative”; the mutagenic call under setting [1] is “inactive; negative”; the mutagenic call (Test System: AMES SALMONELLA TYPHIMURIUM, Strain/Indicator: TA97, Metabolic Activation: RAT, LIVER, S-9, AROCLOR 1254 (10 OR 30%), Method: PREINCUBATION) is “inactive; negative”; the mutagenic call (Test System: AMES SALMONELLA TYPHIMURIUM, Strain/Indicator: TA98, Metabolic Activation: HAMSTER, LIVER, S-9, AROCLOR 1254 (10 OR 30%), Method: PREINCUBATION) is “inactive; negative”; the mutagenic call (Test System: AMES SALMONELLA TYPHIMURIUM, Strain/Indicator: TA98, Metabolic Activation: NONE, Method: PREINCUBATION) is “inactive; negative”; the mutagenic call (Test System: AMES SALMONELLA TYPHIMURIUM, Strain/Indicator: TA98, Metabolic Activation: RAT, LIVER, S-9, AROCLOR 1254 (10 OR 30%), Method: PREINCUBATION) was “inactive; negative”. In addition, the mutagenic call is “inactive; negative” (Test System: AMES SALMONELLA TYPHIMURIUM, Strain/Indicator: TA100, Metabolic Activation: HAMSTER, LIVER, S-9, AROCLOR 1254 (10 OR 30%), Method: PREINCUBATION); “inactive; negative” (Test System: AMES SALMONELLA TYPHIMURIUM, Strain/Indicator: TA100, Metabolic Activation: NONE, Method: PREINCUBATION); “inactive; negative” (Test System: AMES SALMONELLA TYPHIMURIUM, Strain/Indicator: TA100, Metabolic Activation: RAT, LIVER, S-9, AROCLOR 1254 (10 OR 30%), Method: PREINCUBATION); “inactive; negative” (Test System: AMES SALMONELLA TYPHIMURIUM, Strain/Indicator: TA1535, Metabolic Activation: HAMSTER, LIVER, S-9, AROCLOR 1254 (10 OR 30%), Method: PREINCUBATION); “inactive; negative” under setting [4]; “inactive; negative” (Test System: AMES SALMONELLA TYPHIMURIUM, Strain/Indicator: TA1535, Metabolic Activation: RAT, LIVER, S-9, AROCLOR 1254 (10 OR 30%), Method: PREINCUBATION). Further, the mutagenic call runs as follows: (Test System: AMES SALMONELLA TYPHIMURIUM, Strain/Indicator: TA1537, Metabolic Activation: HAMSTER, LIVER, S-9, AROCLOR 1254 (30%), Method: PREINCUBATION) “inactive; negative”; (Test System: AMES SALMONELLA TYPHIMURIUM, Strain/Indicator: TA1537, Metabolic Activation: NONE, Method: PREINCUBATION) “inactive; negative”; (Test System: AMES SALMONELLA TYPHIMURIUM, Strain/Indicator: TA1537, Metabolic Activation: RAT, LIVER, S-9, AROCLOR 1254 (30%), Method: PREINCUBATION) “inactive; negative”.
As for `CCC(=O)Nc1snc2ccc(C)cc12`, the mutagenic call reads like this: under setting [2], “inactive; negative”; (Test System: AMES SALMONELLA TYPHIMURIUM, Strain/Indicator: TA100, Metabolic Activation: S-9, Method: STANDARD PLATE) “inactive; negative”; (Test System: AMES SALMONELLA TYPHIMURIUM, Strain/Indicator: TA1537, Metabolic Activation: NONE, Method: STANDARD PLATE) “inactive; negative”; (Test System: AMES SALMONELLA TYPHIMURIUM, Strain/Indicator: TA1537, Metabolic Activation: S-9, Method: STANDARD PLATE) “inactive; negative”.

Values taken from PubChem BioAssay AID1259407 (Chemical Carcinogenesis Research Information System (CCRIS), 2018).
